Water solubility data for one substance are collected here from patent US20160354320A1, “DRUG LOADED POLYMERIC NANOPARTICLES AND METHODS OF MAKING AND USING SAME” (BIND Therapeutics, Inc., priority 2011, published 2016).

This series is described as follows: Water solubility of cabazitaxel. In kind it is physicochemical. An excerpt: Drug solubilizer (Tween 80) may be added after the fine emulsion has been quenched. Tween 80 is able to effectively solubilize CTXL crystals and allow for the isolation of nanoparticles from unencapsulated CTXL by preventing the formation of CTXL crystals, and/or by effectively solubilizing any CTXL crystals that form when the fine emulsion is quenched. A standard set of nanoemulsion conditions are as follows: […]

On to cabazitaxel [CTXL], for which the water solubility entry was “very low water solubility”.
